# From patent publication US20260007599A1, “TICAGRELOR IV FORMULATIONS FOR USE IN THE TREATMENT OF GRAM-POSITIVE BACTEREMIA” (Hyloris Developments SA, priority 2023, published 2026)
# Assays:
# [1] = test system: Staphylococcus agalactiae; conditions: ex-vivo; cited from earlier work
# Enterococcus faecalis = conditions: ex-vivo; cited from earlier work
# [2] = test system: Methicillin resistant Staphylococcus aureus (MRSA); conditions: ex-vivo; cited from earlier work
# [3] = Physical stability and diluent tests of ticagrelor 5 mg/ml batches with varying HPβCD; format: physicochemical; conditions: for Appearance in 5% dextrose / Appearance in NaCl 0.9%: diluted to ticagrelor 0.1 mg/ml; for Appearance, undiluted: ticagrelor 5 mg/ml
# Description: 5 mg/ml ticagrelor-cyclodextrin solutions with varying amounts of HPβCD were diluted with normal saline, 5% dextrose solution or Ringer's lactate solution. The stability was screened. The ticagrelor concentration when diluted into dextrose or saline was 0.1 mg/ml.
# [4] = test system: Methicillin sensitive Staphylococcus aureus (MSSA); conditions: ex-vivo; cited from earlier work
# [5] = 3 months stability study at pH 7, 7.5 and 8 in amber glass vials; format: physicochemical; set-up: Assay: unit not given here; conditions: for Acetal impurity / Amine impurity / Assay / Description / Regiomer / Sum impurities >0.05 / Total (impurity) / Triol impurity / pH: amber vials, HPβCD 40% w/w
# Description: To optimize the HPβCD concentration and the pH of the solution for intravenous use, a 12 week/3 months stability study was conducted. […] Its stability was tested at regular intervals.
# A comparison of stability profile at 3 different pH-7, 7.5 and 8—was carried out as below, the manufacturing process for all 3 formulations was kept constant with buffer strength at 19 mM.
# [6] = phosphate buffered solution at pH 7.4; after 1 month under normal laboratory conditions of light and temperature; cited from earlier work
# [7] = 19 mM pH 7 phosphate buffer, 1 M
# [8] = 19 mM pH 7 phosphate buffer, 2 M
# [9] = 19 mM pH 7 phosphate buffer, 3 M
# [10] = 19 mM pH 7 phosphate buffer, T0
# [11] = 19 mM pH 7.5 phosphate buffer, 1 M
# [12] = 19 mM pH 7.5 phosphate buffer, 2 M
# [13] = 19 mM pH 7.5 phosphate buffer, 3 M
# [14] = 19 mM pH 7.5 phosphate buffer, T0
# [15] = 19 mM pH 8 phosphate buffer, 1 M
# [16] = 19 mM pH 8 phosphate buffer, 2 M
# [17] = 19 mM pH 8 phosphate buffer, 3 M
# [18] = 19 mM pH 8 phosphate buffer, T0
smiles,measurement,setting,value
"CCCSc1nc(N[C@@H]2C[C@H]2c2ccc(F)c(F)c2)c2nnn([C@@H]3C[C@H](OCCO)[C@@H](O)[C@H]3O)c2n1 [ticagrelor, (1S,2S,3R,5S)-3-{7-[(1R,2S)-2-(3,4-difluorophenyl)cyclopropylamino]5-(propylthio)-3H-(1,2,3)triazolo (4,5-D)pyrimidin-3-yl}-5-(2 hydroxyethoxy) cyclopentane-1,2-diol]",minimal bactericidal concentration,[1],40 microgram/ml
same,minimal bactericidal concentration,Enterococcus faecalis,40 microgram/ml
same,minimal bactericidal concentration,[2],20 microgram/ml
same,ticagrelor concentration that could be dissolved,"[3]; HPβCD 20-40% w/w, without the use of heat",5 to 15 mg/mL
same,Appearance in 5% dextrose,[3]; HPβCD 22.5% w/w,Clear solution
same,Appearance in NaCl 0.9%,[3]; HPβCD 22.5% w/w,Turbid
same,Appearance in 5% dextrose,[3]; HPβCD 25.0% w/w,Clear solution
same,Appearance in NaCl 0.9%,[3]; HPβCD 25.0% w/w,Turbid
same,Appearance in 5% dextrose,[3]; HPβCD 27.5% w/w,Clear solution
same,Appearance in NaCl 0.9%,[3]; HPβCD 27.5% w/w,Turbid
same,Appearance in 5% dextrose,[3]; HPβCD 30.0% w/w,Clear solution
same,Appearance in NaCl 0.9%,[3]; HPβCD 30.0% w/w,Turbid
same,Appearance in 5% dextrose,[3]; HPβCD 32.5% w/w,Clear solution
same,Appearance in NaCl 0.9%,[3]; HPβCD 32.5% w/w,Clear solution
same,stability of undiluted concentrate,"[3]; in the refrigerator, HPβCD concentration as low as 22.5% w/w",remained stable
same,"Appearance, undiluted",[3]; HPβCD 30.0% w/w,Clear solution
same,"Appearance, undiluted",[3]; HPβCD 32.5% w/w,Clear solution
same,minimal bactericidal concentration,[4],20 microgram/ml
same,Acetal impurity,[5]; [7],0.05%
same,Amine impurity,[5]; [7],0.04%
same,Assay,[5]; [7],99.73
same,Description,[5]; [7],clear
same,Regiomer,[5]; [7],0.03%
same,Sum impurities >0.05,[5]; [7],0.05%
same,Total (impurity),[5]; [7],0.27%
same,Triol impurity,[5]; [7],0.02%
same,pH,[5]; [7],7.34
same,Acetal impurity,[5]; [8],0.05%
same,Amine impurity,[5]; [8],0.04%
same,Assay,[5]; [8],99.81
same,Description,[5]; [8],clear
same,Regiomer,[5]; [8],0.06%
same,Sum impurities >0.05,[5]; [8],0.11%
same,Total (impurity),[5]; [8],0.34%
same,Triol impurity,[5]; [8],0.04%
same,pH,[5]; [8],7.34
same,Acetal impurity,[5]; [9],0.05%
same,Amine impurity,[5]; [9],0.06%
same,Assay,[5]; [9],98.51
same,Description,[5]; [9],clear
same,Regiomer,[5]; [9],0.11%
same,Sum impurities >0.05,[5]; [9],0.22%
same,Total (impurity),[5]; [9],0.40%
same,Triol impurity,[5]; [9],0.04%
same,pH,[5]; [9],7.30
same,Acetal impurity,[5]; [10],0.05%
same,Amine impurity,[5]; [10],0.04%
same,Assay,[5]; [10],98.95
same,Description,[5]; [10],clear
same,Regiomer,[5]; [10],0.00%
same,Sum impurities >0.05,[5]; [10],0.22%
same,Total (impurity),[5]; [10],0.41%
same,Triol impurity,[5]; [10],0.05%
same,pH,[5]; [10],7.33
same,Acetal impurity,[5]; [11],0.05%
same,Amine impurity,[5]; [11],0.05%
same,Assay,[5]; [11],104.47
same,Description,[5]; [11],clear
same,Regiomer,[5]; [11],0.01%
same,Sum impurities >0.05,[5]; [11],0.14%
same,Total (impurity),[5]; [11],0.32%
same,Triol impurity,[5]; [11],0.05%
same,pH,[5]; [11],7.50
same,Acetal impurity,[5]; [12],0.05%
same,Amine impurity,[5]; [12],0.05%
same,Assay,[5]; [12],102.59
same,Description,[5]; [12],clear
same,Regiomer,[5]; [12],0.04%
same,Sum impurities >0.05,[5]; [12],0.15%
same,Total (impurity),[5]; [12],0.29%
same,Triol impurity,[5]; [12],0.05%
same,pH,[5]; [12],7.48
same,Acetal impurity,[5]; [13],0.05%
same,Amine impurity,[5]; [13],0.05%
same,Assay,[5]; [13],102.31
same,Description,[5]; [13],clear
same,Regiomer,[5]; [13],0.08%
same,Sum impurities >0.05,[5]; [13],0.23%
same,Total (impurity),[5]; [13],0.41%
same,Triol impurity,[5]; [13],0.04%
same,pH,[5]; [13],7.55
same,Acetal impurity,[5]; [14],0.05%
same,Amine impurity,[5]; [14],0.04%
same,Assay,[5]; [14],104.27
same,Description,[5]; [14],clear
same,Regiomer,[5]; [14],0.00%
same,Sum impurities >0.05,[5]; [14],0.11%
same,Total (impurity),[5]; [14],0.31%
same,Triol impurity,[5]; [14],0.04%
same,pH,[5]; [14],7.40
same,Acetal impurity,[5]; [15],0.05%
same,Amine impurity,[5]; [15],0.05%
same,Assay,[5]; [15],105.88
same,Description,[5]; [15],clear
same,Regiomer,[5]; [15],0.01%
same,Sum impurities >0.05,[5]; [15],0.09%
same,Total (impurity),[5]; [15],0.26%
same,Triol impurity,[5]; [15],0.03%
same,pH,[5]; [15],8.10
same,Acetal impurity,[5]; [16],0.05%
same,Amine impurity,[5]; [16],0.05%
same,Assay,[5]; [16],105.46
same,Description,[5]; [16],clear
same,Regiomer,[5]; [16],0.03%
same,Sum impurities >0.05,[5]; [16],0.15%
same,Total (impurity),[5]; [16],0.32%
same,Triol impurity,[5]; [16],0.05%
same,pH,[5]; [16],8.04
same,Acetal impurity,[5]; [17],0.05%
same,Amine impurity,[5]; [17],0.07%
same,Assay,[5]; [17],104.46
same,Description,[5]; [17],clear
same,Regiomer,[5]; [17],0.06%
same,Sum impurities >0.05,[5]; [17],0.23%
same,Total (impurity),[5]; [17],0.37%
same,Triol impurity,[5]; [17],0.05%
same,pH,[5]; [17],8.03
same,Acetal impurity,[5]; [18],0.05%
same,Amine impurity,[5]; [18],0.04%
same,Assay,[5]; [18],103.25
same,Description,[5]; [18],clear
same,Regiomer,[5]; [18],0.00%
same,Sum impurities >0.05,[5]; [18],0.25%
same,Total (impurity),[5]; [18],0.43%
same,Triol impurity,[5]; [18],0.06%
same,pH,[5]; [18],8.07
same,stability of ticagrelor solution in HPβCD (conclusion),[5]; pH range of 7 to 8,stable
same,ticagrelor concentrations in solution,[6],declined
